# Assay results taken from patent US12338263B2, “Antibacterial aminoglycoside derivatives” (priority 2019, dated 2025).
# Key:
# [1] = tested on: Klebsiella pneumoniae ATCC-BAA-1705; experiment: Drug efficacy in mice (mouse pneumonia model); format: in vivo; details: CD-1 mice, read at 24 h, FIG. 2
# Experimental: 21 CD-1 mice were divided into 7 cages, 3 mice per cage, and were injected intraperitoneally with the immunosuppressant cyclophosphamide (150 mpk) on the 4th day.
# On the first day, 7 cages of mice were injected intraperitoneally again with the immunosuppressant cyclophosphamide (100 mpk). The strain Kpn ATCC-BAA-1705 (Klebsiella pneumoniae ATCC-BAA-1705) was recovered on a MHA plate. The recovered colonies were picked and dissolved in saline to prepare Kpn ATCC-BAA-1705 bacterial solution with a concentration of 4.00E+08 CFU/mL for later use in mouse lung infection. The amount of bacterial solution infected in the lung of experimental mice was 50 μL/mouse, that is, the inoculation amount was 2.00E+07 CFU/mouse. At 2 h and 24 h infection, the lung tissue of the mice in control group was taken and placed in 5 mL saline, homogenized, and dotted on a plate with gradient dilution.
# The specific administration of mice was as follows: • (1) 2 h after infection: At the end of 2 h after infection, the lung tissue of the mice in the first cage was taken and placed in 5 mL saline, homogenized, and dotted on a plate with gradient dilution, two duplications for each mouse. The amount of bacteria loaded in the lung tissue of the mouse was counted. Mice in the third and fourth cages were injected respectively with 30 mpk and 10 mpk compound Plazomicin subcutaneously, mice in the fifth and sixth cages were injected respectively with 30 mpk and 10 mpk compound subcutaneously, and mice in the seventh cage were injected with 100 mpk meropenem subcutaneously. • (2) 10 h after infection: Mice in the third and fourth cages were injected respectively with 30 mpk and 10 mpk plazomicin subcutaneously, mice in the fifth and sixth cages were injected respectively with 30 mpk and 10 mpk compound 1 subcutaneously, and mice in the seventh cage were injected with 100 mpk meropenem subcutaneously. At the end of 24 h infection, the lung tissue of the mice in the second to seventh cages was taken and placed in 5 mL saline, homogenized, and dotted on a plate with gradient dilution, two duplications for each mouse. The amount of bacteria carried in the lung tissue of the mouse was counted, and the experimental results were summarized and shown in FIG. 2.
# [2] = tested on: auditory function in guinea pigs; experiment: Auditory safety: compound action potential (CAP) in guinea pigs; format: in vivo; details: guinea pig, in vivo, sc, 100 mg/kg
# Experimental: Healthy adult guinea pigs (150-250 g) were employed as the research objects, and were randomly divided into saline control group, gentamicin group, compound Plazomicin group and Compound 1 group, with 8 animals in each group. Subcutaneous administration is used, and the following assays were carried out during and after the administration for 14 consecutive days: • 1. To analyze the effects of different drugs on the auditory function of guinea pigs, the compound action potential (CAP) of animals was recorded on the 14th day (29th day, i.e., 4 weeks) after administration. The results obtained were analyzed and the changes of the threshold shift, amplitude, latency and other indicators among different treatment groups were compared. • 2. After the different groups of animals were processed and the auditory function data thereof were collected, the cochlea of the animals was taken out for fixation and staining. Surface preparation of basilar membrane of the cochlea on one side was performed to count the loss of hair cells so as to make a cochlea map, and the cochlea on the other side was decalcified and frozen sectioned. The density of spiral ganglion neurons was counted and compared among groups. Research Results: 1. Administration Method and Treatment
# Gentamicin from Dalian Meilun Biotechnology Co., Ltd., and Plazomicin and Compound 1 from WuXi AppTec (WuHan) Co., Ltd. are used, the solution of which were prepared just before use each time by using saline for dissolution to the concentration of 50 mg/mL, and the injection dose was 100 mg/kg body weight. Method: subcutaneous injection, and confirmation of no liquid leakage after each injection.
# The compound action potential (CAP) was tested and recorded when clicks and different frequencies of pure tones (1 KHz-32 kHz) were applied to each group of animals, and variations in amplitude and latency were mainly compared when clicks and medium and high frequency pure tones (16, 32 kHz) were applied. The magnitude of amplitude reflects the responsiveness of hair cells and auditory nerves. The larger the amplitude and the greater the slope of the I/O curve were, the better the responsiveness and the better the function were. In addition, the cochlea from apical turn to basal turn was responsive to sounds from low-frequency to high-frequency respectively, which is the frequency correspondence of the cochlear basilar membrane. The functional changes to different frequencies correspond to the different structural and functional changes of the cochlea fromapical turn to basal turn. The length of latency was also related to the function of the hair cells and auditory nerve response. Generally speaking, increasing of the threshold value when the cochlea was injured would inevitably lead to the extension of latency. […] In other words, the extension of latency reflected the decrease of response function. The previous ototoxicity of aminoglycoside antibiotics was mainly concentrated in the high-frequency area. In this study, the gentamicin group was consistent with previous results, as summarized below.
compound,measurement,setting,value
CN[C@@H]1[C@@H](O)[C@@H](O[C@@H]2[C@@H](O)[C@H](O[C@H]3OC(CNCCOCCONC(=N)N)=CC[C@H]3N)[C@@H](N)C[C@H]2NC(=O)[C@@H](O)CCN)OC[C@]1(C)O [Compound 1],in vivo activity in lung infection model (bacteria in lung tissue),[1]; 10 mpk and 30 mpk subcutaneously 2 h and 10 h after infection,good in vivo activity
same,efficacy at a dose of 10 mpk in lung infection model,[1]; 10 mpk subcutaneously 2 h and 10 h after infection,equivalent to that of Plazomicin at a dose of 30 mpk
same,efficacy compared with Plazomicin in lung infection model,[1]; subcutaneously 2 h and 10 h after infection,better than that of Plazomicin
same,CAP amplitude under click,[2],consistent with the Control group
same,hearing damage (CAP amplitude) at 16 kHz,[2],no different from the Control group
same,"hearing damage to experimental animals (CAP amplitude, overall)",[2],significantly lower than that of Gentamicin and Plazomicin
same,CAP amplitude at 16 kHz,[2]; 29 day,381.646±20.895 uv
same,CAP amplitude at 32 kHz,[2]; 29 day,79.420±7.000 uv
same,hearing damage (CAP amplitude) at 32 kHz,[2]; 29 day,34.7%
same,reduction of hearing damage at 32 kHz compared to Gentamicin,[2]; 29 day,39.6%
same,reduction of hearing damage at 32 kHz compared to Plazomicin,[2]; 29 day,13.5%
